Measurements taken from ChEMBL document CHEMBL1201862, “PubChem BioAssay data set” (2004).
Values joined by “and” are separate entries in the source; they are usually repeats but may differ in a detail not shown here. Equal entries are not always repeated.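 All cell lines were grown in 96-well plates and treated with compound for 48 hours. GI50: concentration for 50% inhibition of growth.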 Active and inactive are the calls of the source. Rule as the data show it: active = GI50 up to about 1.1 µM and inactive = higher.

Columns and labels:
Assay in all cases: NCI-60 cell line screen, 48 h
[1] = system: RPMI-8226
[2] = system: LOX IMVI
[3] = system: K562
[4] = system: A549
[5] = system: HOP-92
[6] = system: T47D
[7] = system: DU-145
[8] = system: TK-10
[9] = system: HCT-15
[10] = system: MCF7
[11] = system: OVCAR-8
[12] = system: U-251
[13] = system: CAKI-1
[14] = system: OVCAR-3
[15] = system: SK-MEL-28
[16] = system: SF-295
[17] = system: HL-60
[18] = system: UO-31
[19] = system: HCC 2998

| SMILES | GI50 [1] | GI50 [2] | GI50 [3] | GI50 [4] | GI50 [5] | GI50 [6] | GI50 [7] | GI50 [8] | GI50 [9] | GI50 [10] | GI50 [11] | GI50 [12] | GI50 [13] | GI50 [14] | GI50 [15] | GI50 [16] | GI50 [17] | GI50 [18] | GI50 [19] |
| --- | --- | --- | --- | --- | --- | --- | --- | --- | --- | --- | --- | --- | --- | --- | --- | --- | --- | --- | --- |
| CC(C(=O)c1ccccc1)C(c1ccccc1)N1CCOCC1 (stereo not drawn) | 54.3 µM (inactive) | > 100 µM (inactive) | > 100 µM (inactive) | > 100 µM (inactive) | > 100 µM (inactive) | > 100 µM (inactive) | > 100 µM (inactive) | > 100 µM (inactive) | > 100 µM | > 100 µM (inactive) | > 100 µM (inactive) | > 100 µM (inactive) | > 100 µM (inactive) | > 100 µM (inactive) | > 100 µM (inactive) | > 100 µM (inactive) | 49.1 µM (inactive) | – | – |
| CC(SCc1ccccc1)C(=O)O (stereo not drawn) | > 100 µM (inactive) | > 100 µM (inactive) | > 100 µM (inactive) | > 100 µM (inactive) | > 100 µM (inactive) | > 100 µM (inactive) | > 100 µM (inactive) | > 100 µM (inactive) | > 100 µM | > 100 µM (inactive) | > 100 µM (inactive) | > 100 µM (inactive) | > 100 µM (inactive) | > 100 µM (inactive) | > 100 µM (inactive) | > 100 µM (inactive) | > 100 µM (inactive) | > 100 µM (inactive) | – |
| COC(=O)C1=COC(C)C2CN3CCc4c([nH]c5cc(OC)c(OC)cc45)C3CC12 (stereo not drawn) | 27.9 µM (inactive) | > 100 µM (inactive) and 55.5 µM (inactive) | 38.4 µM (inactive) and 37.8 µM (inactive) | 96.8 µM (inactive) and 49.5 µM (inactive) | 22 µM (inactive) and 40.8 µM (inactive) | 40.6 µM (inactive) and 34.6 µM (inactive) | > 100 µM (inactive) and 98.9 µM (inactive) | > 100 µM (inactive) and 87.1 µM (inactive) | 43.8 µM and 25.1 µM | – | – | – | > 100 µM (inactive) | 58.3 µM (inactive) | – | 59.4 µM (inactive) and 56.1 µM (inactive) | 26.6 µM (inactive) and 29.9 µM (inactive) | 51.1 µM (inactive) and 54.2 µM (inactive) | 58.2 µM (inactive) and 36.1 µM (inactive) |
| CC(=O)C(=[N+]=[N-])C(=O)N(C)CCC#N | > 10 µM (inactive) | > 10 µM (inactive) | > 10 µM (inactive) | > 10 µM (inactive) | > 10 µM (inactive) | > 10 µM (inactive) | > 10 µM (inactive) | > 10 µM (inactive) | > 10 µM | > 10 µM (inactive) | > 10 µM (inactive) | > 10 µM (inactive) | – | > 10 µM (inactive) | > 10 µM (inactive) | > 10 µM (inactive) | > 10 µM (inactive) | > 10 µM (inactive) | – |
| Cc1cc(Cc2cc(C)cc(C(C)(C)C)c2O)c(O)c(Cc2cc(C)cc(C(C)(C)C)c2O)c1 | 0.724 µM (active) | 3.1 µM (inactive) | 0.931 µM (active) | 3.06 µM (inactive) | 2.24 µM (inactive) | 3.01 µM (inactive) | 3.4 µM (inactive) | 3.03 µM (inactive) | 2.24 µM | 2.34 µM (inactive) | 2.75 µM (inactive) | 2.7 µM (inactive) | 4.08 µM (inactive) | 2.69 µM (inactive) | 4.14 µM (inactive) | 3.18 µM (inactive) | 2.51 µM (inactive) | 2.98 µM (inactive) | – |
| CN(C)c1ccc(/N=N/c2ccc3[nH]cnc3c2)cc1 | 19.5 µM (inactive) | – | 19.5 µM (inactive) | 29.7 µM (inactive) | – | 29.5 µM (inactive) | 27.4 µM (inactive) | 22.5 µM (inactive) | 22.1 µM | – | 38.4 µM (inactive) | 24.5 µM (inactive) | 42.2 µM (inactive) | – | 11.5 µM (inactive) | 24.4 µM (inactive) | 14.7 µM (inactive) | 28.4 µM (inactive) | – |
| CN1CCN(Cc2cc3c(nn2)-c2ccccc2C3=O)CC1 | > 100 µM (inactive) | – | 47.1 µM (inactive) | > 100 µM (inactive) | > 100 µM (inactive) | 49 µM (inactive) | > 100 µM (inactive) | > 100 µM (inactive) | 26.2 µM | 30.8 µM (inactive) | 95.7 µM (inactive) | 44.3 µM (inactive) | > 100 µM (inactive) | – | – | > 100 µM (inactive) | 21 µM (inactive) | 32.7 µM (inactive) | – |
| O=C(c1ccccc1)N1CCC(CC2(c3cc4ccccc4[nH]3)OCCO2)CC1 | 2.52 µM (inactive) | 17.2 µM (inactive) | 16.3 µM (inactive) | 68.5 µM (inactive) | 21.2 µM (inactive) | 41.4 µM (inactive) | > 100 µM (inactive) | 28.3 µM (inactive) | 32.4 µM | 19.4 µM (inactive) | 58.6 µM (inactive) | 34.8 µM (inactive) | > 100 µM (inactive) | > 100 µM (inactive) | 19.4 µM (inactive) | 39.4 µM (inactive) | – | 30.6 µM (inactive) | – |
| O=[N+]([O-])c1ccc2c(c1)Sc1ccccc1N2 | 5.79 µM (inactive) | 41.3 µM (inactive) | 5.41 µM (inactive) | 8.51 µM (inactive) | 6.12 µM (inactive) | – | 74.6 µM (inactive) | > 100 µM (inactive) | 27.6 µM | 44.6 µM (inactive) | > 100 µM (inactive) | 67.3 µM (inactive) | > 100 µM (inactive) | > 100 µM (inactive) | > 100 µM (inactive) | > 100 µM (inactive) | 5.11 µM (inactive) | > 100 µM (inactive) | > 100 µM (inactive) |
| N=c1c2c(-c3ccccc3)c[nH]c2ncn1N | > 100 µM (inactive) | > 100 µM (inactive) | > 100 µM (inactive) | > 100 µM (inactive) | > 100 µM (inactive) | > 100 µM (inactive) | – | > 100 µM (inactive) | > 100 µM | > 100 µM (inactive) | > 100 µM (inactive) | > 100 µM (inactive) | > 100 µM (inactive) | > 100 µM (inactive) | > 100 µM (inactive) | > 100 µM (inactive) | > 100 µM (inactive) | > 100 µM (inactive) | > 100 µM (inactive) |
| O=C1C(=O)N(c2cccc(C(F)(F)F)c2)C(=S)N1c1ccccc1 | 36.2 µM (inactive) | 1.91 µM (inactive) | 34.5 µM (inactive) | 33.3 µM (inactive) | 19.1 µM (inactive) | 25.4 µM (inactive) | 22.2 µM (inactive) | 2.84 µM (inactive) | 19.1 µM | – | 33.7 µM (inactive) | 31.6 µM (inactive) | 29.2 µM (inactive) | – | 28 µM (inactive) | 31.5 µM (inactive) | 32.7 µM (inactive) | 25.2 µM (inactive) | 42 µM (inactive) |
| CCOC(=O)c1ccc(NCC#CCN2CCOCC2)cc1 | > 100 µM (inactive) | > 100 µM (inactive) | 38.6 µM (inactive) | 83.9 µM (inactive) | > 100 µM (inactive) | > 100 µM (inactive) | > 100 µM (inactive) | – | 62.4 µM | 66.4 µM (inactive) | – | > 100 µM (inactive) | – | > 100 µM (inactive) | > 100 µM (inactive) | – | 48.1 µM (inactive) | > 100 µM (inactive) | – |
